# Measured values from patent publication US4291033A, “Oxoimidazoquinoxalines” (Roussel Uclaf, priority 1979, dated 1981).
# Test system: cutaneous anaphylaxis
# Test: Passive cutaneous anaphylaxis (PCA) in rats
# Type: in vivo, male rats
# Conditions: Rattus norvegicus, iv
# From the text: Passive cutaneous anaphylaxis (PCA) in rats
# Cutaneous anaphylaxis was induced in groups of 7 male rats weighing 180 to 220 grams by intradermal (ID) sensitization with antiserum followed, three days later, by systemic challenge with antigen. Evans blue dye injected with the antigen is used as a marker to assess the severity of the local response. Anti-allergic drugs inhibit this reaction and this method has been described by OVARY (1962) in "Passive Cutaneous Anaphylaxis in Allergology" 258-367 Ed. Brown; Pergamon Press.
# Preparation of Antigen (or Sensitization)
# (Alum-precipitated ovalbumen)
# 1. Wash 120 grams of Al(OH)3 gel in 140 ml of saline (use of a macerator facilitates mixing).
# 2. Centrifuge at 3,000 r.p.m. for about 10 minutes.
# 3. Resuspend the precipitate with 300 ml of albumen egg powder (1.3 mg/ml) in saline and allow to stand for 30 minutes.
# 4. Centrifuge at 3,000 r.p.m. for 10 minutes.
# 5. Weigh the wet precipitate and to each gram weight add 1 ml of saline. Store in frigerator.
# (Quantity sufficient for 60 rats for a 3 day sensitization program).
# Preparation of Antiserum (i.e. anti-ovalbumen)
# 1. 1 ml of the alum-precipitated ovalbumen was injected subcutaneously into 180-200 gram rats on days 0,2 and 4.
# 2. The rats were bled on day 14 either by cardiac puncture or via the dorsal abdominal aorta.
# 3. Equal quantities of serum from each animal were pooled and thoroughly mixed.
# 4. 2 ml of aliquots were stored at -20° C. in plastic tubes.
# The antiserum for sensitization was diluted so that an ID injection of 0.1 ml into control animals gave an average score of a single spot of between 2.0-3.5 using a 5 point scoring system (0,1,2,3,4)
# (A) SENSITIZATION: Rats are anaesthetized with Nembutal (40-60 mg/kg i.p.) and then sensitized by four ID injections (0.1 ml each) on their shaved backs. The animals were then left for a period of three days to develop sensitization.
# (B) […]: The sensitized rats were anaesthetised and challenged orally or intravenously via the superficial penile vein with 1 ml of an antigen/Evans blue mixture (1 mg albumen egg powder in 0.5 ml saline plus 0.5 ml of 1% Evans blue). The injections were speeded up by using an automatic 1 ml self filling glass syringe. The "challenged" rats were killed after 30 minutes, (usually pithed) and their skin on the dorsal surface was removed. The degree and area of blueing, proportional to the anaphylactic reaction, was assessed on a five point scoring system.
# 1. Total scores for sites 1,2,3 and 4=X
# 2. Mean value of X for each group=X
# 3. X t=X for test group; X c=X for control group
# 4. % inhibition=(X c-X t)/X c×100/1
row,SMILES,ED50 [mg/kg]
1,"O=C(O)c1cn2c(n1)c(=O)[nH]c1ccccc12 [Example 2, 4,5-dihydro-4-oxoimidazo-[1,2-a]-quinoxaline-2-carboxylic acid]",0.16
2,"Cn1c(=O)c2nc(C(=O)O)cn2c2ccccc21 [Example 4, 4,5-dihydro-5-methyl-4-oxoimidazo-[1,2-a]-quinoxaline-2-carboxylic acid]",0.031
3,"CCn1c(=O)c2nc(C(=O)O)cn2c2ccccc21 [Example 6, 4,5-dihydro-5-ethyl-4-oxoimidazo-[1,2-a]-quinoxaline-2-carboxylic acid]",0.01
4,"CCCn1c(=O)c2nc(C(=O)O)cn2c2ccccc21 [Example 8, 4,5-dihydro-5-propyl-4-oxoimidazo-[1,2-a]-quinoxaline-2-carboxylic acid]",0.01
5,"CCCCn1c(=O)c2nc(C(=O)O)cn2c2ccccc21 [Example 10, 4,5-dihydro-5-butyl-4-oxoimidazo-[1,2-a]-quinoxaline-2-carboxylic acid]",0.023

# Same assay, conditions: Rattus norvegicus, po
row,SMILES,ED50 [mg/kg]
1,"O=C(O)c1cn2c(n1)c(=O)[nH]c1ccccc12 [Example 2, 4,5-dihydro-4-oxoimidazo-[1,2-a]-quinoxaline-2-carboxylic acid]",2
2,"Cn1c(=O)c2nc(C(=O)O)cn2c2ccccc21 [Example 4, 4,5-dihydro-5-methyl-4-oxoimidazo-[1,2-a]-quinoxaline-2-carboxylic acid]",1.28
3,"CCOC(=O)c1cn2c(n1)c(=O)n(CC)c1ccccc12 [Example 5, Ethyl 4,5-dihydro-5-ethyl-4-oxoimidazo-[1,2-a]-quinoxaline-2-carboxylate]",0.16
4,"CCn1c(=O)c2nc(C(=O)O)cn2c2ccccc21 [Example 6, 4,5-dihydro-5-ethyl-4-oxoimidazo-[1,2-a]-quinoxaline-2-carboxylic acid]",0.45
5,"CCCn1c(=O)c2nc(C(=O)O)cn2c2ccccc21 [Example 8, 4,5-dihydro-5-propyl-4-oxoimidazo-[1,2-a]-quinoxaline-2-carboxylic acid]",0.24
6,"CCCCn1c(=O)c2nc(C(=O)O)cn2c2ccccc21 [Example 10, 4,5-dihydro-5-butyl-4-oxoimidazo-[1,2-a]-quinoxaline-2-carboxylic acid]",0.59
